Our source for the MIC and melting point values is US10919851B2, “2-pyrrolidine phenylhydrazides antibacterial agents” (ABAC THERAPEUTICS, S.L, priority 2016, dated 2021).

≈ marks a conversion by molar mass, not a printed value.

Series [1] relates to Acinetobacter baumannii. Kind of series: MIC, standard microtiter dilution method (CLSI M07-A9). The series is classed as cell-based. The note with it: Cation adjusted Mueller-Hinton Broth, 37° C., 24 hours. Here is the method:
(§1) The products of the present invention were tested for their activity against Acinetobacter baumannii (A. baumannii) as well as against the following bacteria: Staphylococcus aureus (S. aureus), Streptococcus pneumoniae (S. pneumoniae), Enterococcus faecium (E. faecium), Pseudomonas aeruginosa (P. aeruginosa), Klebsiella pneumoniae (K. pneumoniae) and Escherichia coli (E. coli). Minimal inhibitory concentrations (MICs) were determined using a standard microtiter dilution method, according to the Clinical and Laboratory Standards Institute (CLSI) procedures, in particular according to […]-A9: “Methods for Dilution Antimicrobial Susceptibility Tests for Bacteria That Grow Aerobically; Approved Standard-Ninth Edition”. Briefly, compounds were dissolved with dimethyl sulfoxide (DMSO) at 12.8 mg/mL. Serial two-fold dilutions of compounds were performed in DMSO and 1 μl of each dilution were transferred into microtiter culture plates, followed by 100 μl of inoculated culture media to give a final microorganism concentration of 5×10^5 colony-forming units/mL. Plates were incubated at 37° C. for 24 hours and MICs determined as the lowest compound concentration that inhibited growth. Media used in determinations were Cation adjusted Mueller-Hinton Broth for all the microorganisms except for S. pneumoniae and E. faecium whose culture media were supplemented with 2.5% of lysed horse blood. Incubations were performed at air atmosphere except S. pneumoniae cultures that were incubated with 5% CO2 atmosphere.

Series [2] concerns Klebsiella pneumoniae. The series is described as above. The series is classed as cell-based. The settings on record: Cation adjusted Mueller-Hinton Broth, 37° C., 24 hours, read-out: MIC K. pneumoniae. As for the experimental part: as §1
Series [3] deals with Staphylococcus aureus. Described as above. The series is classed as cell-based. The settings on record: Cation adjusted Mueller-Hinton Broth, 37° C., 24 hours, read-out: MIC S. aureus. Here is the method: as §1
Series [4] deals with Enterococcus faecium. The series is described as above. The series is classed as cell-based. The note with it: media with 2.5% lysed horse blood, 37° C., 24 hours, read-out: MIC E. faecium. Here is the method:
as §1

The test system of series [5] is Streptococcus pneumoniae. The description is as above. The series is classed as cell-based. The note with it: media with 2.5% lysed horse blood, 5% CO2, 37° C., 24 hours, read-out: MIC S. pneumoniae. As for the experimental part: as §1
Series [6] relates to Escherichia coli. Described as above. The series is classed as cell-based. The settings on record: Cation adjusted Mueller-Hinton Broth, 37° C., 24 hours. As for the experimental part: as §1
Series [7] relates to Pseudomonas aeruginosa. The series is described as above. The series is classed as cell-based. The settings on record: Cation adjusted Mueller-Hinton Broth, 37° C., 24 hours, read-out: MIC P. aeruginosa. Here is the method:
as §1

Take `NC(=O)N1CCC[C@@H]1C(=O)NNc1ccc(F)cc1` [Example 2, (R)-2-(2-(4-fluorophenyl)hydrazinecarbonyl)pyrrolidine-1-carboxamide]: the minimal inhibitory concentration (MIC) (in general, the lowest concentration found to suppress growth) in series [1] was 4 µg/mL (≈ 15 µM); in series [2] it was > 128 µg/mL; in series [3] it was > 128 µg/mL; in series [4], > 128 µg/mL; in series [5], > 128 µg/mL; in series [6], > 128 µg/mL. The MIC in series [7] is > 128 µg/mL.

On to `NC(=O)N1CCC[C@H]1C(=O)NNc1ccc(F)cc1` [Example 3, (S)-2-(2-(4-fluorophenyl) hydrazinecarbonyl) pyrrolidine-1-carboxamide], for which the MIC in series [1] was 4 µg/mL (≈ 15 µM); in series [2] it was > 128 µg/mL; in series [3] it was > 128 µg/mL; in series [4] it was > 128 µg/mL; in series [5], > 128 µg/mL; in series [6], > 128 µg/mL. Further, the MIC in series [7] is > 128 µg/mL.

Regarding `NC(=O)N1CCCC1C(=O)NNc1ccc(F)cc1` (stereo not drawn) [Example 4, 2-(2-(4-fluorophenyl)hydrazinecarbonyl)pyrrolidine-1-carboxamide], the melting point (commonly the temperature of the solid-liquid transition) fell in the range of 140 to 144 °C. In series [1], this compound returned an MIC of 2 µg/mL (≈ 7.51 µM). Moreover, in series [2], the minimum inhibitory concentration (MIC) is > 128 µg/mL. Besides, the MIC in series [3] is > 128 µg/mL. The MIC in series [4] was > 128 µg/mL. Besides, the minimal inhibitory concentration (MIC) in series [5] is > 128 µg/mL. Further, the MIC in series [6] was > 128 µg/mL. Also, the MIC in series [7] is > 128 µg/mL.

With `NC(=O)N1CCCC1C(=O)NNc1ccc(OC(F)(F)F)cc1` (stereo not drawn) [Example 7, 2-(2-(4-(trifluoromethoxy)phenyl)hydrazinecarbonyl)pyrrolidine-1-carboxamide], the MIC in series [1] is 8 µg/mL (≈ 24.1 µM); in series [2] it was > 128 µg/mL; in series [3], 128 µg/mL (≈ 385 µM); in series [4] it was > 128 µg/mL; in series [5], > 128 µg/mL; in series [6], > 128 µg/mL. In series [7], the MIC is > 128 µg/mL.

Take `NC(=O)N1CCCC1C(=O)NNc1ccc(Cl)cc1F` (stereo not drawn) [Example 9, 2-(2-(4-chloro-2-fluorophenyl)hydrazinecarbonyl)pyrrolidine-1-carboxamide]: the MIC was 8 µg/mL (≈ 26.6 µM) in series [1]; > 128 µg/mL in series [2]; > 128 µg/mL in series [3]; > 128 µg/mL in series [4]; > 128 µg/mL in series [5]; > 128 µg/mL in series [6]. In series [7], the MIC is > 128 µg/mL.

Regarding `COc1ccc(NNC(=O)C2CCCN2C(N)=O)cc1` (stereo not drawn) [Example 10, 2-(2-(4-methoxyphenyl)hydrazinecarbonyl)pyrrolidine-1-carboxamide], the MIC is 2 µg/mL (≈ 7.19 µM) in series [1]; > 128 µg/mL in series [2]; > 128 µg/mL in series [3]; > 128 µg/mL in series [4]; > 128 µg/mL in series [5]; > 128 µg/mL in series [6]. The minimal inhibitory concentration (MIC) in series [7] was > 128 µg/mL.

In the case of `NC(=O)N1CCCC1C(=O)NNc1ccc2c(c1)OCCO2` (stereo not drawn) [Example 11, 2-(2-(2,3-dihydrobenzo[b][1,4]dioxin-6-yl) hydrazinecarbonyl)pyrrolidine-1-carboxamide], the minimum inhibitory concentration (MIC) in series [1] was 8 µg/mL (≈ 26.1 µM); in series [2], > 128 µg/mL; in series [3], > 128 µg/mL; in series [4], > 128 µg/mL; in series [5], > 128 µg/mL; in series [6], > 128 µg/mL. Also, the minimal inhibitory concentration (MIC) in series [7] is > 128 µg/mL.

As to `CC(=O)N1CCC[C@@H]1C(=O)NNc1ccc(F)cc1` [Example 14, (R)-1-acetyl-N′-(4-fluorophenyl)pyrrolidine-2-carbohydrazide], the MIC in series [1] is 2 µg/mL (≈ 7.54 µM); in series [2] it was > 128 µg/mL; in series [3] it was > 128 µg/mL; in series [4], > 128 µg/mL; in series [5], > 128 µg/mL; in series [6], > 128 µg/mL. In addition, the MIC in series [7] was > 128 µg/mL.

`O=C(NNc1ccc(F)cc1)C1CCCN1O` (stereo not drawn) [Example 15, N′-(4-fluorophenyl)-1-hydroxypyrrolidine-2-carbohydrazide]: the MIC in series [1] is 1 µg/mL (≈ 4.18 µM); in series [2] it was > 128 µg/mL; in series [3], > 128 µg/mL; in series [4], > 128 µg/mL; in series [5], > 128 µg/mL; in series [6] it was > 128 µg/mL. In addition, the MIC in series [7] was > 128 µg/mL.

`CN1CCCC1(C)C(=O)NNc1ccc(F)cc1` (stereo not drawn) [Example 16, N′-(4-fluorophenyl)-1,2-dimethylpyrrolidine-2-carbohydrazide]: the MIC in series [1] is 0.25 µg/mL (≈ 0.995 µM); in series [2], > 128 µg/mL; in series [3] it was > 128 µg/mL; in series [4], > 128 µg/mL; in series [5], > 128 µg/mL; in series [6] it was > 128 µg/mL. In addition, the MIC in series [7] is > 128 µg/mL.

Turning to `Cl.O=C(NNc1ccc(F)cc1)C1CCCN1C(=O)N1CCNCC1` (stereo not drawn) [Example 18, N′-(4-fluorophenyl)-1-(piperazine-1-carbonyl)pyrrolidine-2-carbohydrazide hydrochloride], the minimum inhibitory concentration (MIC) in series [1] is 8 µg/mL; in series [2], > 128 µg/mL; in series [3] it was 128 µg/mL; in series [4], > 128 µg/mL; in series [5], > 128 µg/mL; in series [6], > 128 µg/mL. The MIC in series [7] was > 128 µg/mL.

For the compound `O=C(NNc1ccc(F)cc1)[C@@H]1CCCN1CC1CC1` [Example 25, (S)-1-(cyclopropylmethyl)-N′-(4-fluorophenyl)pyrrolidine-2-carbohydrazide], the MIC in series [1] is 0.25 µg/mL (≈ 0.901 µM); in series [2], > 128 µg/mL; in series [3], > 128 µg/mL; in series [4] it was > 128 µg/mL; in series [5], > 128 µg/mL; in series [6] it was > 128 µg/mL. Also, the MIC in series [7] was > 128 µg/mL.

Consider `CN1CC2CC2C1C(=O)NNc1ccc(F)cc1` (stereo not drawn) [Example 26, N′-(4-fluorophenyl)-3-methyl-3-azabicyclo[3.1.0]hexane-2-carbohydrazide], for which the MIC in series [1] is 0.25 µg/mL (≈ 1 µM); in series [2] it was > 128 µg/mL; in series [3], > 128 µg/mL; in series [4], > 128 µg/mL; in series [5] it was > 128 µg/mL; in series [6] it was > 128 µg/mL. Moreover, the minimal inhibitory concentration (MIC) in series [7] was > 128 µg/mL.

In the case of `Cl.N=C(N)N1CCCC1C(=O)NNc1ccc(F)cc1` (stereo not drawn) [Example 30, 2-(2-(4-fluorophenyl)hydrazinecarbonyl)pyrrolidine-1-carboximidamide hydrochloride], the MIC was 2 µg/mL in series [1]; > 128 µg/mL in series [2]; > 128 µg/mL in series [3]; > 128 µg/mL in series [4]; > 128 µg/mL in series [5]; > 128 µg/mL in series [6]. Further, the MIC in series [7] was > 128 µg/mL.
